Measured values as given in ChEMBL document CHEMBL4414642, “Buxaustroines A-N, a Series of 17(13→18)abeo-Cycloartenol Triterpenoidal Alkaloids from Buxus austro-yunnanensis and Their Cardioprotective Activities” (J Nat Prod, 2019).
Active and inactive are the calls of the source. No cut-off for these calls is given here.

Legend:
H9c2 [1] = test: Cytotoxicity against rat H9c2 cells at 1 uM after 48 hrs by CCK-8 assay; assay type: cell-based; conditions: h9c2, 48 h
H9c2 [2] = test: Cardioprotective activity against rat H9c2 cells assessed as inhibition of doxorubicin-induced reduction in cell viability at 0.5 uM preincubated for 30 mins followed by doxorubicin treatment and measured after 48 hrs by CCK8 assay; assay type: functional, cell-based
H9c2 [3] = test: Cardioprotective activity against rat H9c2 cells assessed as inhibition of doxorubicin-induced reduction in cell viability at 1 uM preincubated for 30 mins followed by doxorubicin treatment and measured after 48 hrs by CCK8 assay; assay type: functional, cell-based

| Structure (SMILES) | Activity (H9c2 [1]) | Activity (H9c2 [2]) | Activity (H9c2 [3]) |
| --- | --- | --- | --- |
| CCC1=C[C@H]2CC[C@@]34C[C@]35CC[C@H](NC)[C@@H](C)[C@@H]5CC[C@H]4[C@]2(C)CC1=O | Non-Toxic | Active | – |
| CCC1=C[C@H]2CC[C@@]34C[C@]35CC[C@H](NC)C(C)(C)[C@@H]5C=C[C@H]4[C@]2(C)CC1=O | Non-Toxic | Active | – |
| C/C=C1/C(=O)C[C@@]2(C)[C@@H]3CC[C@H]4C(C)(C)[C@@H](NC)CC[C@]45C[C@@]35CC[C@]12C | Non-Toxic | Active | – |
| C=C1[C@@H](N(C)C)CC[C@@]23C[C@]24CC[C@]2(O)C=C(CC)C(=O)C[C@@]2(C)[C@@H]4CC[C@@H]13 | Non-Toxic | inactive | inactive |
| CC[C@H]1C[C@@]2(O)CC[C@@]34C[C@]35CC[C@H](NC)C(C)(C)[C@@H]5CC[C@H]4[C@]2(C)CC1=O | Non-Toxic | inactive | inactive |
| C=C1[C@@H](N(C)C)CC[C@@]23C[C@]24CC[C@]2(O)C[C@H](CC)C(=O)C[C@@]2(C)[C@@H]4CC[C@@H]13 | Non-Toxic | inactive | inactive |
| CC[C@H]1C=C2CC[C@@]34C[C@]35CC[C@H](NC)C(C)(C)[C@@H]5C=C[C@H]4[C@]2(C)C[C@@H]1O | Non-Toxic | – | – |
| C=C1[C@@H](NC)CC[C@@]23C[C@]24CCC2=C[C@](O)(CC)C(=O)C[C@@]2(C)[C@@H]4CC[C@@H]13 | Non-Toxic | – | – |
| CCC1=C[C@@]2(O)CC[C@@]34C[C@]35CC[C@H](NC)C(C)(C)[C@@H]5C=C[C@H]4[C@]2(C)CC1=O | Non-Toxic | inactive | inactive |
| C=C1[C@@H](NC)CC[C@@]23C[C@]24CC=C2C=C(CC)C(=O)C[C@@]2(C)[C@@H]4CC[C@@H]13 | Non-Toxic | Active | – |
| C=C1[C@@H](NC)CC[C@@]23C[C@]24CC[C@@H]2C=C(CC)C(=O)C[C@@]2(C)[C@@H]4CC[C@@H]13 | Non-Toxic | Active | – |
| CCC1=C[C@H]2CC[C@@]34C[C@]35CC[C@H](NC)C(C)(C)[C@@H]5C[C@H](OC(C)=O)[C@H]4[C@]2(C)CC1=O | Non-Toxic | – | – |
| CCC1=C[C@H]2CC[C@@]34C[C@]35CC[C@H](N(C)C)[C@@H](C)[C@@H]5CC[C@H]4[C@]2(C)CC1=O | Non-Toxic | Active | Active |
| CN[C@@H](C)[C@H]1[C@H](O)C[C@@]2(C)[C@@H]3CC[C@H]4C(C)(C)[C@@H](NC)CC[C@]45C[C@@]35CC[C@]12C | Non-Toxic | – | Active |
| CCC1=CC2=CC[C@@]34C[C@]35CC[C@H](NC)C(C)(C)[C@@H]5CC[C@H]4[C@]2(C)CC1=O | Non-Toxic | Active | – |
| C=C1[C@@H](NC)CC[C@@]23C[C@]24CC[C@]2(O)C[C@H](CC)C(=O)C[C@@]2(C)[C@@H]4CC[C@@H]13 | Non-Toxic | inactive | inactive |
